Columns and labels:
[1] = Maximum tolerated dose (LD10) in tumor-free male mice; details: ip days 1, 5, 9; deaths observed during 21 days; from plot of log dose vs percent mortality
Procedure: The analogues were also tested in tumor-free male mice for their LD10 values (Table XIV). The animals were given a broad range of doses (ip) on days 1, 5, and 9. The maximum tolerated doses of AMD and the analogues that caused death in only 10% of the tested animals in 21 days (i.e., LD10) were recorded as MTD. […] On the basis of these values, the calculated therapeutic index values of SAD is 96, and those of RAD I, II, and III are 60, 67, and 70, respectively.
control in P388 tumor bearing mice. ^c MTD (maximum tolerated dose) i
the lethal dose (milligram/kilogram) for 10% normal BDF1 male mice
days). Values were calculated from a plot of log dose vs percent

[2] = test system: B16 melanoma; assay: In vivo antitumor activity against B16 melanoma; design: species or system BDF1 mice
Procedure: ^a 0.2 mL of 1:5 (weight/volume) brei of B16 melanoma implanted
ip on day 0 in groups of nine BDF1 mice. Drugs administered ip^b
MST (range), median survival time in days (range of days for death of
individual animal). ^c % ILS (surv), percent increase in life span
(survivors on day 65/total injected).

[3] = test system: P388 Leukemia; assay: Minimum effective dose in P388 tumor bearing mice; type: in vivo
Text: ^a Drugs administered ip once on days 1, 5, and 9 starting 1 day afte
tumor implantation. Determinations were made from analysis of plotted
logdose response data. ^b MED (minimum effective dose) is the dose
(milligram/killogram) providing an increase in life span of 45% over

[4] = test system: P388/S (adriamycin sensitive) leukemia; assay: Antitumor activity in vivo, P388/S leukemia; design: species or system mice; details: P388/S, at optimal dose, ip days 1, 5, 9
Procedure: The analogues were tested for their antitumor activities in P388 lymphocytic leukemia in male BDF1 mice.
^a Male CDF1 mic inoculated ip: 10^6 cells inoculum, day 0.
Drugs administered in 10% dimethyl sulfoxidesaline on days 1, 5, and 9. %
ILS = percent increase in life span. Fractions in parentheses = tumor fre
survivors/total on day 60^b. P388/S (adriamycin sensitive) and
P388/ADR (adriamycin resistant) tumors were evaluated in the same
experiment with agent listed.

[5] = test system: mammary MX-1; assay: Treatment of mammary MX-1 tumor; type: in vivo; details: at 60 mg/kg
[6] = test system: colon 38 adenocarcinoma; assay: Activity against advanced colon carcinoma C38 tumor; type: in vivo, CDF1 mice; details: for % inhibn of tumor: tumors measured day 21
Procedure: In view of favorable activity agianst colon 26 carcinoma, further experiments using the active analogues were carried out on the advanced colon adenocarcinomas of mouse colon 38. […] The superiority of RAD III and SAD over AMD in inhibiting colon 38 carcinoma is evident from the data of both tumor weight inhibition and increases in survival time of the treated over nontreated mice and the larger number of long-term survivors produced by these analogues.
^a CDF1 mice were injected sc with colon 38 adenocarcinoma
fragments (70 mg) and treated with drugs with iv injections on day 1, 5,
and 9 following tumor imoplantation on day 0. ^b [100 (tumor weight o
treated mice/tumor weight of untreated mice)] × 100; data pooled
from two experiments, tumors measured on day 21 after implantation ^c
(Median survival time of treated mice/median survival of untreated mice)
× 100; in parenthesis, number of over 100 day survivors/number of […]

[7] = test system: lung LX-1; assay: Treatment of lung LX-1 tumor; type: in vivo; details: at 60 mg/kg
[8] = test system: CX-1 human colon adenocarcinoma; assay: Chemotherapy of human colon CX-1 tumor heterotransplanted in nude mice; type: in vivo, human tumor in athymic mice; details: for % T/C, optimal: TST 15, observed day 22
Procedure: Tables XI and XII show the effectiveness of SAD (2) and RAD (3b and 3c) against CX-1 human colon adenocarcinoma heterotransplanted into athymic mice, with three iv treatments with drugs on a weekly schedule starting on the 15th day of tumor transplant. AMD and the analogues were tested at doses of 45 and 60 ug/kg.
^a -, % T/C high than 50%; ±, % T/C close to 50%; +, % T/C from 50
to 35%; ++, % T/C from 35% to 20%; +++, % T/C lower than 20%; ++++,
regression of the tumor to a volume lower than 10% of the volume at the
start of treatment. ^b Statistically significant as evaluated by the
^a Intravenous treatment, once a week for three weeks; eight mice per
group. ^b TST; number of days between tumor transplant and starting o
treatment. ^c Numbers in parentheses; day of observation after the […]

[9] = Toxic deaths in nontumored mice treated in parallel (colon 38 experiment); type: in vivo
Text: × 100; in parenthesis, number of over 100 day survivors/number of
mice in a group of nontumored mice treated in parallel with the
tumorbearing mice and observed for 100 days.

[10] = test system: P388/ADR (adriamycin resistant) leukemia; assay: Antitumor activity in vivo, P388/ADR leukemia; design: species or system mice; details: at optimal dose, ip days 1, 5, 9
Procedure: The analogues were also tested against P388/ADR murine leukemia following the standard protocol (Table VI).
ILS = percent increase in life span.

[11] = test system: supercoiled closed-circular pBR322 DNA; assay: Cleavage of closed circular pBR322 DNA; type: biochemical; details: 20° C., 1 h, Na2S2O4, FeCl2
Procedure: The cleavage of DNA was followed by monitoring of the conversion of supercoiled closed-circular pBR322 DNA to open-circular DNA (analyzed by agarose gel electrophoresis and quantitated by staining with 0.5 ug/mL of ethidium bromide for 30 min and densitometry; (Table II). SAD and RAD show strong DNA-cleaving ability in the presence of sodium hydrosulfite and ferrous chloride. Presumably, sodium hydrosulfite acts as a reducing agent and regenerates Fe(II) from Fe(III) to produce a continuous source of the active metal ion. When the DNA-cleaving reaction with the analogues was performed at 20° C., the ratio of cleaved DNA (open circular form DNA versus closed circular DNA) was almost maximum within 1 h. […] Cleavage of DNA by the analogues is aided by the actinomycin chromopeptide moiety, which acts as a site-specific binder to DNA, and is effected by the aminoquinone function which is chelated to the ferrous ion during the process, and this is the likely candidate which generates the radical species.
Plasmid DNA pBR322 (0.5 ug) was dissolved in /8 μL of a reaction buffer (5 mM […], 10 mM Tris-HCl). To this solution, 1 μL of the 10 mM aqueous solution of the agent containing 1 mM FeCl2 was added. The mixture was incubated for 0.5-2 h at 20° or 37° C. Then, the incubation mixture was mixed with 10 uL of sample loading buffer (50% glycerin in 2 X Boyer's buffer containing 0.01% bromophenol blue). Finally, 5 uL of the mixture was analyzed by 0.7% agarose gel electrophoresis (120 V, Boyer's buffer; the migration distance of bromophenol blue was 5.0 cm). The gel was stained with […] of ethidium bromide and then quantitated by densitometry.
^a Ten microliters of 200 u M pBR322 DNA nucelotides in UM 10 mM
TrisHCl (pH 7.8) and 50 mM NaCl, containing 4 mM Na2 --S2
O4 and 100 μM FeCl2, was incubated with drug concentration a
20° C. for 1 h; the reaction mixture was kept saturated with air
throughout the incubation period.
^b Percentage of DNA was calculated from the amounts of openand
closedcir- cular DNA in the incubation mixture.

[12] = at optimal dose, ip days 1, 5, 9

## Cc1nc2c(C(=O)N[C@@H]3C(=O)N[C@H](C(C)C)C(=O)N4CCC[C@H]4C(=O)N(C)CC(=O)N(C)[C@@H](C(C)C)C(=O)O[C@@H]3C)c3nc4c(C(=O)N[C@@H]5C(=O)N[C@H](C(C)C)C(=O)N6CCC[C@H]6C(=O)N(C)CC(=O)N(C)[C@@H](C(C)C)C(=O)O[C@@H]5C)c(N)c(=O)c(C)c-4oc3c(C)c2o1 [RAD I (3a)]
[1]
  MTD (maximum tolerated dose), lethal dose for 10% of normal mice (LD10): 1.80 milligram/kilogram
[2]; [12]
  % ILS: 124%
  survivors on day 65/total injected: 6/9
[2]; at optimal dose, ip days 1, 5, 9, range of days of death
  MST (range), median survival time: 65(55-62) days
[2]; ip, days 1, 5, 9
  optimal dose: 300 μg/kg per inj
[3]; MTD in normal BDF1 mice / MED in P388 tumor bearing mice
  therapeutic index MTD/MED: 60
[3]; ip once on days 1, 5, and 9, from plotted log-dose response data
  MED (minimum effective dose), dose giving 45% increase in life span over control: 0.03 milligram/killogram

## COc1cccc2c1C(=O)c1c(O)c3c(c(O)c1C2=O)C[C@@](O)(C(=O)CO)C[C@@H]3O[C@H]1C[C@H](N)[C@H](O)[C@H](C)O1 [adriamycin]
[4]
  tumor free survivors/total on day 60: 1/8
[5]
  response of mammary MX-1 to treatment: some positive response
[6]; dose 2.0 mg/kg iv days 1, 5, 9
  % T/C (median survival time): 103%
  % inhibn of tumor: 29%
[6]; dose 3.0 mg/kg iv days 1, 5, 9
  % T/C (median survival time): 98%
  % inhibn of tumor: 70%
[6]; dose 4.0 mg/kg iv days 1, 5, 9
  % T/C (median survival time): 250%
  over 100 day survivors/number of mice: 5/9
  % inhibn of tumor: 93%
[7]
  response of lung LX-1 to treatment: some positive response
[8]; dose 6 × 10^3 μg/kg iv once a week for three weeks
  % T/C, optimal: 38%
[8]; dose 10 × 10^3 μg/kg iv once a week for three weeks
  % T/C, optimal: 39%
[8]; three iv treatments weekly from 15th day of transplant, at the doses tested
  response of CX-1 tumor to treatment (in words): ineffective
[9]; dose 2.0 mg/kg iv days 1, 5, 9
  toxic deaths: 0/9
[9]; dose 3.0 mg/kg iv days 1, 5, 9
  toxic deaths: 0/9
[9]; dose 4.0 mg/kg iv days 1, 5, 9
  toxic deaths: 3/9
[9]; dose 5.0 mg/kg iv days 1, 5, 9
  toxic deaths: 8/9

## CO[C@@]12[C@H](COC(N)=O)C3=C(C(=O)C(C)=C(N)C3=O)N1C[C@@H]1N[C@@H]12 [mitomycin C]
[4]
  tumor free survivors/total on day 60: 1/8
[10]
  tumor free survivors/total on day 60: 5/8

## bleomycin [BLM (bleomycin)]
[11]
  Percentage of closed circular pBR322 DNA cleaved: 55%
[11]; concn 50 M (so in the source)
  Percentage of closed circular pBR322 DNA cleaved: 75%
[11]; concn 100 M (so in the source)
  Percentage of closed circular pBR322 DNA cleaved: 85%

— patent publication US4966962A, “Reverse analogue of actinomycin D” (Trustees of Boston University, priority 1988, dated 1990)
